IC50 data for 21 compounds are collected here from patent publication US11304929B2, “Tosylacetate based compounds and derivatives thereof as PHGDH inhibitors” (priority 2017, dated 2022).

In assay [1] the target is PHGDH (Homo sapiens (Human), UniProt O43175). Description: 3-Phosphoglycerate Dehydrogenase (PHGDH) Fluorescence Intensity Assay, run at two NAD/3-PG ratios: PHGDH_HIGH_NAD/3-PG (250 μM NAD/500 μM 3-PG) and PHGDH_500_NAD/3-PG (500 μM NAD/500 μM 3-PG). It counts as biochemical.
Assay [2] deals with MDA-MB-468. Description: 13C3 Serine Assay MDA-MB-468 (13C3 serine levels by LC/MS/MS). As to conditions: Homo sapiens; MDA-MB-468 cells, 13C3 serine levels by LC/MS/MS; read-out: IC50 (13CSERINE). It counts as cell-based.
Description: Cells are cultivated in Medium I in a 75 mL flask.
Day 1: 5000 cells in 180 μL Medium I/well were seeded into a 96-well plate. Plates were incubated at 37° C. in a 5% CO2 incubator overnight.
Day 2: 10 mM DMSO stock from test compounds were serially pre-diluted with Medium I (See dilution scheme: for the first well 20 μL DMSO stock are diluted with 180 μL Medium I. From this 1000 μM solution further seven 1:3 (1+2) dilution are prepared with Medium I). 20 μL of these pre-dilutions are transferred in duplicates to the 96-well plate of Day 1. After incubation at 37° C. in a CO2 incubator for 1 hour the medium was removed, 100 μL PBS (tempered to room temperature) added and subsequently removed again.
180 μL Medium II were then added per well and 20 μL of serial dilutions of test compounds in Medium II (as described before) were transferred per well as above. After 180 minutes incubation at 37° C. in a CO2 incubator the medium was again cautiously removed.
After the addition of 100 μL methanol: H2O (80:20, v:v, pre-cooled to −80° C.) the plates were sealed immediately and frozen at −80° C.
At day of measurement plates were thawn, centrifuged and the supernatant evaporated. The samples were resuspended in 100 μl water for tandem mass spectrometry.
^13C3 serine levels were analyzed with LC/MS/MS using Multiple Reaction Monitoring (MRM).
IC50 values were computed from these values using a 4 parametric logistic model.
Setting [3] is: 250 μM NAD/500 μM 3-PG, read-out: IC50 (PHGDH_HIGH_NAD/3-PG).

Where two headings read alike, the source gives them in different places.

Chain of PHGDH (O43175 2-533 limits assumed): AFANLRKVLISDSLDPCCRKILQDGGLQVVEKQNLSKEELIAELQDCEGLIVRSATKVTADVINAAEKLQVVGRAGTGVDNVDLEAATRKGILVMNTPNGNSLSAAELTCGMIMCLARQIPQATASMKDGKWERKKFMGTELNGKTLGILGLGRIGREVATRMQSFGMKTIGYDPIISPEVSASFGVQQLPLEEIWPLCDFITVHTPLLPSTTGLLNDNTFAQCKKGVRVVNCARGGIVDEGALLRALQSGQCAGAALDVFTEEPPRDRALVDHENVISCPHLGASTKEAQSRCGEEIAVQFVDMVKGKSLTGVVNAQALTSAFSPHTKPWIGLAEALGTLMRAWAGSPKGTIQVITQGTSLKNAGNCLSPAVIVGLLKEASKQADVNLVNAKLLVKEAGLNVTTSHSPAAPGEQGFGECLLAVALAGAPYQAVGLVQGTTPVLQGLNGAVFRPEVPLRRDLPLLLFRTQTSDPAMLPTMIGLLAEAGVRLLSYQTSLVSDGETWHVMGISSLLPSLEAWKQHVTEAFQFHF

Consider `COCCOC(=O)C(C)(C)S(=O)(=O)c1ccc([C@@H](C)NC(=O)c2cc3c(Cl)c(Cl)c(C)nc3n2C)cc1` [Example 05-018, 2-methoxyethyl 2-{4-[(1R)-1-({4,5-dichloro-1,6-dimethyl-1H-pyrrolo[2,3-b]pyridin-2-yl}formamido)ethyl]benzenesulfonyl}-2-methylpropanoate], for which the results for the IC50 in assay [1] (setting [3]) and in assay [2] were 5330 nM and 142 nM, respectively.

Consider `COC(=O)C1(S(=O)(=O)c2ccc([C@@H](C)NC(=O)c3cc4c(Cl)cc(C)cc4n3C)cc2)CC1` [Example 05-019, methyl 1-{4-[(1R)-1-[(4-chloro-1,6-dimethyl-1H-indol-2-yl)formamido]ethyl]benzenesulfonyl}cyclopropane-1-carboxylate], for which the results for the IC50 in assay [1] (setting [3]) and in assay [2] were 5310 nM and 509 nM, respectively.

In the case of `COC(=O)C1(S(=O)(=O)c2ccc([C@@H](C)NC(=O)c3cc(-c4ccc(F)cc4)nn3C)cc2)CCOCC1` [Example 06-001, methyl 4-{4-[(1R)-1-{[3-(4-fluorophenyl)-1-methyl-1H-pyrazol-5-yl]formamido}ethyl]benzenesulfonyl}oxane-4-carboxylate], the IC50 in assay [1] (setting [3]) was 7700 nM; in assay [2], 25400 nM.

Take `COC(=O)C(C)(C)S(=O)(=O)c1ccc([C@@H](C)NC(=O)c2cc(-c3ccc(F)cc3)nn2C)cc1` [Example 06-002, methyl 2-{4-[(1R)-1-{[3-(4-fluorophenyl)-1-methyl-1H-pyrazol-5-yl]formamido}ethyl]benzenesulfonyl}-2-methylpropanoate]: the IC50 in assay [1] (setting [3]) was found to be 14700 nM; in assay [2], 1880 nM.

As for `Cc1cc(Cl)c2cc(C(=O)N[C@H](C)c3ccc(S(=O)(=O)C4(C(=O)O)CCOCC4)cc3)n(C)c2c1` [Example 07-002, 4-{4-[(1R)-1-[(4-chloro-1,6-dimethyl-1H-indol-2-yl)formamido]ethyl]benzenesulfonyl}oxane-4-carboxylic acid], the IC50 in assay [1] (setting [3]) worked out at 7 nM; in assay [2], 6900 nM.

For the compound `Cc1cc(Cl)c2cc(C(=O)N[C@H](C)c3ccc(S(=O)(=O)C(C)(C)C(=O)O)cc3)n(C)c2c1` [Example 07-005, 2-{4-[(1R)-1-[(4-chloro-1,6-dimethyl-1H-indol-2-yl)formamido]ethyl]benzenesulfonyl}-2-methylpropanoic acid], the IC50 stood at 12 nM in assay [1] (setting [3]) and 1190 nM in assay [2].

`CCCC(C(=O)O)S(=O)(=O)c1ccc([C@@H](C)NC(=O)c2cc3c(Cl)cc(C)cc3n2C)cc1` (stereo partly drawn) [Example 07-012, 2-{4-[(1R)-1-[(4-chloro-1,6-dimethyl-1H-indol-2-yl)formamido]ethyl]benzenesulfonyl}pentanoic acid]: the IC50 came to 6 nM in assay [1] (setting [3]); 16 nM in assay [1] (500 μM NAD/500 μM 3-PG, read-out: IC50 (PHGDH_500_NAD/3-PG)); 2390 nM in assay [2].

Take `CCOCCOCCOC(=O)CS(=O)(=O)c1ccc([C@@H](C)NC(=O)c2cc3c(Cl)cc(C)cc3n2C)cc1` [Example 09-001, 2-(2-ethoxyethoxy)ethyl 2-{4-[(1R)-1-[(4-chloro-1,6-dimethyl-1H-indol-2-yl)formamido]ethyl]benzenesulfonyl}acetate]: the IC50 was determined as 289 nM in assay [1] (setting [3]) and 53.8 nM in assay [2].

With `CC(=O)OCCOC(=O)CS(=O)(=O)c1ccc([C@@H](C)NC(=O)c2cc3c(Cl)cc(C)cc3n2C)cc1` [Example 09-002, 2-(acetyloxy)ethyl 2-{4-[(1R)-1-[(4-chloro-1,6-dimethyl-1H-indol-2-yl)formamido]ethyl]benzenesulfonyl}acetate], the IC50 in assay [1] (setting [3]) was 230 nM; in assay [2] it was 69 nM.

For `COCCOC(=O)CS(=O)(=O)c1ccc([C@@H](C)NC(=O)c2cc3c(Cl)c(Cl)c(C)nc3n2C)cc1` [Example 09-003, 2-methoxyethyl 2-{4-[(1R)-1-({4,5-dichloro-1,6-dimethyl-1H-pyrrolo[2,3-b]pyridin-2-yl}formamido)ethyl]benzenesulfonyl}acetate], the IC50 was 286 nM in assay [1] (setting [3]) and 82.8 nM in assay [2].

Consider `CO[C@@H](C)COC(=O)CS(=O)(=O)c1ccc([C@@H](C)NC(=O)c2cc3c(Cl)cc(C)cc3n2C)cc1` [Example 09-004, (2S)-2-methoxypropyl 2-{4-[(1R)-1-[(4-chloro-1,6-dimethyl-1H-indol-2-yl)formamido]ethyl]benzenesulfonyl}acetate], for which the IC50 in assay [1] (setting [3]) is 394 nM; in assay [2] it was 78.6 nM.

On to `Cc1cc(Cl)c2cc(C(=O)N[C@H](C)c3ccc(S(=O)(=O)CC(=O)OCCOCCO)cc3)n(C)c2c1` [Example 09-005, 2-(2-hydroxyethoxy)ethyl 2-{4-[(1R)-1-[(4-chloro-1,6-dimethyl-1H-indol-2-yl)formamido]ethyl]benzenesulfonyl}acetate], for which the IC50 is 197 nM in assay [1] (setting [3]) and 139 nM in assay [2].

In the case of `Cc1cc(Cl)c2cc(C(=O)N[C@H](C)c3ccc(S(=O)(=O)CC(=O)OCCO)cc3)n(C)c2c1` [Example 09-007, 2-hydroxyethyl 2-{4-[(1R)-1-[(4-chloro-1,6-dimethyl-1H-indol-2-yl)formamido]ethyl]benzenesulfonyl}acetate], the IC50 is 166 nM in assay [1] (setting [3]) and 23.9 nM in assay [2].

As to `Cc1cc(Cl)c2cc(C(=O)N[C@H](C)c3ccc(S(=O)(=O)CC(=O)OCc4cccc(C(F)(F)F)c4)cc3)n(C)c2c1` [Example 09-011, [3-(trifluoromethyl)phenyl]methyl 2-{4-[(1R)-1-[(4-chloro-1,6-dimethyl-1H-indol-2-yl)formamido]ethyl]benzenesulfonyl}acetate], the results for the IC50 in assay [1] (setting [3]) and in assay [2] were 3510 nM and 20.1 nM, respectively.

With `Cc1cc(Cl)c2cc(C(=O)N[C@H](C)c3ccc(S(=O)(=O)CC(=O)OCC4(C)COC4)cc3)n(C)c2c1` [Example 09-012, (3-methyloxetan-3-yl)methyl 2-{4-[(1R)-1-[(4-chloro-1,6-dimethyl-1H-indol-2-yl)formamido]ethyl]benzenesulfonyl}acetate], the IC50 in assay [1] (setting [3]) was 303 nM; in assay [2], 22.2 nM.

For `Cc1cc(Cl)c2cc(C(=O)N[C@H](C)c3ccc(S(=O)(=O)CC(=O)OCC(C)C)cc3)n(C)c2c1` [Example 09-013, 2-methylpropyl 2-{4-[(1R)-1-[(4-chloro-1,6-dimethyl-1H-indol-2-yl)formamido]ethyl]benzenesulfonyl}acetate], the IC50 turned out to be 19300 nM in assay [1] (setting [3]) and 70.1 nM in assay [2].

Take `Cc1cc(Cl)c2cc(C(=O)N[C@H](C)c3ccc(S(=O)(=O)CC(=O)OC4CCOCC4)cc3)n(C)c2c1` [Example 09-014, oxan-4-yl 2-{4-[(1R)-1-[(4-chloro-1,6-dimethyl-1H-indol-2-yl)formamido]ethyl]benzenesulfonyl}acetate]: the IC50 in assay [1] (setting [3]) stood at 1040 nM; in assay [2] it was 14.7 nM.

As for `Cc1cc(Cl)c2cc(C(=O)N[C@H](C)c3ccc(S(=O)(=O)CC(=O)OCCS(C)(=O)=O)cc3)n(C)c2c1` [Example 09-020, 2-methanesulfonylethyl 2-{4-[(1R)-1-[(4-chloro-1,6-dimethyl-1H-indol-2-yl)formamido]ethyl]benzenesulfonyl}acetate], the IC50 was found to be 54 nM in assay [1] (setting [3]) and 37.4 nM in assay [2].

Take `CC(=O)OCOC(=O)CS(=O)(=O)c1ccc([C@@H](C)NC(=O)c2cc(-c3ccccc3)nn2C)cc1` [Example 10-003, (acetyloxy)methyl 2-{4-[(1R)-1-[(1-methyl-3-phenyl-1H-pyrazol-5-yl)formamido]ethyl]benzenesulfonyl}acetate]: the IC50 came out at 816 nM in assay [1] (setting [3]) and 23.7 nM in assay [2].

Regarding `C[C@@H](NC(=O)c1cc(-c2ccc(F)cc2)nn1C)c1ccc(S(=O)(=O)CC(=O)OCC2(C)COC2)cc1` [Example 10-006, (3-methyloxetan-3-yl)methyl 2-{4-[(1R)-1-{[3-(4-fluorophenyl)-1-methyl-1H-pyrazol-5-yl]formamido}ethyl]benzenesulfonyl}acetate], the results for the IC50 in assay [1] (setting [3]) and in assay [2] were 938 nM and 103 nM, respectively.

Regarding `Cc1cc(Cl)c2cc(C(=O)N[C@H](C)c3ccc(S(=O)(=O)CC(=O)NO)cc3)n(C)c2c1` [Example 14-020, 4-chloro-N-[(1R)-1-{4-[(hydroxycarbamoyl)methanesulfonyl]phenyl}ethyl]-1,6-dimethyl-1H-indole-2-carboxamide], the results for the IC50 in assay [1] (setting [3]) and in assay [2] were 172 nM and 136 nM, respectively.
